Laboratory results as given in patent publication US8404434B2, “Method for determining degree of negative effect of macrophages on vertebrate” (Yamasa Corporation, priority 2006, dated 2013).

How the values were obtained:
[1] = tested on: Peritoneal macrophages; test: Diacetylspermine production by cultured macrophages with the tricarboxylate carrier inhibitor BTA; type: cell-based, mice
Description: (§1) Peritoneal macrophages collected from mice injected with thioglycollate were inoculated into a 96-well microplate (1.25×10^5 cells/well), followed by culturing. In this case, cell culture was performed by use of RPMI 1640 medium containing 10% horse serum, the medium being supplemented with spermine (i.e., a raw material of diacetylpolyamine) (10 μM) and glucose (0, 1, or 2 g/L).
(§2) After completion of culturing, the levels of diacetylspermine and residual glucose contained in the medium were measured through a customary method. As is clear from FIG. 1, diacetylspermine is produced in response to depletion of glucose.
In order to examine the origin of acetyl CoA (i.e., a raw material of diacetylpolyamine), 1,2,3-benzyltricarboxylate (BTA), which is an inhibitor of a tricarboxylate carrier used for transportation of citrate from mitochondria to the cytoplasm, was added in an amount of 10 mM to a medium supplemented with no glucose, followed by measurement of diacetylspermine level.

[2] = tested on: Peritoneal macrophages; test: Diacetylspermine production by cultured macrophages with the uncoupler DNP; type: cell-based, mice; conditions: DNP 100 μM in medium, glucose 2 g/L, spermine 10 μM, cultured for two days; level in medium
Description: as §1, §2
Dinitrophenol (DNP), which is a reagent called “uncoupler” that forcibly reduces the active potential of mitochondria, is added to a medium in an amount of 100 μM, followed by culturing for two days in a manner similar to that described above. After completion of culturing, diacetylspermine level was measured. The medium was supplemented with glucose in an amount of 2 g/L.

SMILES	Diacetylspermine ([1]; BTA 10 mM in medium supplemented with no glucose, level in medium) [nM]	production of diacetylspermine ([1]; BTA 10 mM, medium without glucose, result in words)	Diacetylspermine [2] [nM]
O=C(O)c1cccc(C(=O)O)c1C(=O)O [BTA, 1,2,3-benzyltricarboxylate]	43.0	inhibited	–
O=[N+]([O-])c1ccc(O)c([N+](=O)[O-])c1 [DNP, Dinitrophenol]	–	–	61.8
